This passage reports IC50 and Ki results from ChEMBL document CHEMBL1909046, “DrugMatrix in vitro pharmacology data”.

The target of one data set is D(1A) dopamine receptor (Homo sapiens, UniProt P21728). Kind of data set: DRUGMATRIX: Dopamine D1 radioligand binding (ligand: [3H] SCH-23390). In kind it is cell membranes, CHO, Membrane. The conditions noted are these: cho; Not Active = under 50% inhibition at 10 µM.
For a further data set, the target named is T1, Cytochrome P450 2A6 (Homo sapiens, UniProt P11509). Note: in other assays of this panel Not Active means under 50% inhibition at 10 µM.
T1 sequence (P11509 whole entry): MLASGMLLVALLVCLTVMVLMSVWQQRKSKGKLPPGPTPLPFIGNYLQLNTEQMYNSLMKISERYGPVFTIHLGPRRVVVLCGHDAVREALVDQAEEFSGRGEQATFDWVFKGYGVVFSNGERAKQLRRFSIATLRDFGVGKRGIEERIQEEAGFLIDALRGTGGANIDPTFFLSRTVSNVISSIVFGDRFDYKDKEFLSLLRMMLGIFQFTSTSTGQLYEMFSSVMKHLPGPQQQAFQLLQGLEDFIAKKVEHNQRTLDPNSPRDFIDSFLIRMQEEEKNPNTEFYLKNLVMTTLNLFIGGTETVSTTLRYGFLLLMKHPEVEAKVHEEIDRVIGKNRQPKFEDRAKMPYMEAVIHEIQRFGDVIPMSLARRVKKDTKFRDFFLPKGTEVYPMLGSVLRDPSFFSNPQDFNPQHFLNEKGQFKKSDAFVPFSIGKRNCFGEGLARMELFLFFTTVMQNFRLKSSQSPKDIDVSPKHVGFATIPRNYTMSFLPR
The conditions noted are these: bti-tn-5b1-4.

Another data set deals with Melanocortin receptor 4 (Homo sapiens, UniProt P32245). In kind it is cell membranes, HEK293, Membrane. The conditions noted are these: hek293.
The target in data set [1] is T2, Muscarinic acetylcholine receptor M4 (Homo sapiens, UniProt P08173). Note: in other assays of this panel Not Active means under 50% inhibition at 10 µM.
T2 sequence (P08173 whole entry): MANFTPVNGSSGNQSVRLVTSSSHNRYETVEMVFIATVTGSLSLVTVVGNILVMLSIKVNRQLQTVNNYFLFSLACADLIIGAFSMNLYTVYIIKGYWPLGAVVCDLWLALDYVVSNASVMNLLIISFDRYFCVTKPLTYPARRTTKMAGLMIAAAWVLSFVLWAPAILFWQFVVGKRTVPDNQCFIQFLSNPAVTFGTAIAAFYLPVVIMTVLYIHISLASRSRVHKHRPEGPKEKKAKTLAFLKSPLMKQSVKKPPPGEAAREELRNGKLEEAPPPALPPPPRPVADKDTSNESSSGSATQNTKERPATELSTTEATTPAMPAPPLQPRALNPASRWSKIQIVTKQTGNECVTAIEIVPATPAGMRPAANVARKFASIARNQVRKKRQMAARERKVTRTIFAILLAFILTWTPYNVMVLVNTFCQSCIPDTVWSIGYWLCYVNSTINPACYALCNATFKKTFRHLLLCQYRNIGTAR
In kind it is cell membranes, CHO-K1, Membrane. The conditions noted are these: cho-k1.

Data set [2] is described as follows: DRUGMATRIX: Leukotriene, BLT (LTB4) radioligand binding (ligand: [3H]LTB4). In kind it is cell membranes, Membrane. The conditions noted are these: u-937; Not Active = under 50% inhibition at 10 µM.
Data set [3] in a line: DRUGMATRIX: Calcium Channel Type L, Phenylalkylamine radioligand binding (ligand: [3H] (-)-Desmethoxyverapamil (D-888)). Format: cell membranes, Rattus norvegicus, Wistar, Brain, Membrane. Particulars: Not Active = under 50% inhibition at 10 µM.

Sequence of D(1A) dopamine receptor (P21728 whole entry): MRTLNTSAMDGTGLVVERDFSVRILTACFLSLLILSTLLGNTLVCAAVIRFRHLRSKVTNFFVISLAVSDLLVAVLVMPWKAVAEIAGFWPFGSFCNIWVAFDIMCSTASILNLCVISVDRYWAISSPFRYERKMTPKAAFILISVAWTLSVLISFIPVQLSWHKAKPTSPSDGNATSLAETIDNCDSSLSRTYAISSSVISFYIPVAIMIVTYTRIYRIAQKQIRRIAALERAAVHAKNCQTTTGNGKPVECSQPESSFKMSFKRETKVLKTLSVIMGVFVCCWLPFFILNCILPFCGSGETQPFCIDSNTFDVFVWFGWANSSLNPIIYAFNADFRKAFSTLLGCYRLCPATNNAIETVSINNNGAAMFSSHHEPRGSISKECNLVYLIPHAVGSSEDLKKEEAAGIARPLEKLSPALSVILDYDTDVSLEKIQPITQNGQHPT
Sequence of Melanocortin receptor 4 (P32245 whole entry): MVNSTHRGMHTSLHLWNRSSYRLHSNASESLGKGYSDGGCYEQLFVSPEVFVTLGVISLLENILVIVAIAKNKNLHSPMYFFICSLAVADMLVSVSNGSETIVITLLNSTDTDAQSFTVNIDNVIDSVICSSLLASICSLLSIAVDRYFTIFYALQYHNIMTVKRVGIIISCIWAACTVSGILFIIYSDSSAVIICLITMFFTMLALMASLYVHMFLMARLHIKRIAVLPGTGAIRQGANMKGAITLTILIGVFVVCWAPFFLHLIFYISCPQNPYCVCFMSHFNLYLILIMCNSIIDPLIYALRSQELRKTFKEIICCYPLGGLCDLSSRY

Consider `COc1ccc(C2C(=O)c3ccccc3C2=O)cc1` [ANISINDIONE], for which the IC50 result (at D(1A) dopamine receptor; against Cytochrome P450 2A6; against Melanocortin receptor 4; in data set [1]; in data set [2]; in data set [3]) was “Not Active” each time. The inhibition constant (Ki) result (at Cytochrome P450 2A6; in data set [2]; in data set [3]) was “Not Active” each time.
As for `CN/C(=N\CCSCc1nc[nH]c1C)NC#N` [CIMETIDINE], the half-maximal inhibitory concentration (IC50) result (on D(1A) dopamine receptor; against Cytochrome P450 2A6; on Melanocortin receptor 4; in data set [1]; in data set [2]; in data set [3]) was “Not Active” in each case. Moreover, the Ki entry (at Cytochrome P450 2A6; in data set [2]; in data set [3]) was “Not Active” in each case.
With NYSTATIN, the half-inhibitory concentration (IC50) entry (at D(1A) dopamine receptor; at Cytochrome P450 2A6; against Melanocortin receptor 4; in data set [1]; in data set [2]; in data set [3]) was “Not Active” throughout. Besides, the inhibitory constant (Ki) result (at D(1A) dopamine receptor; at Cytochrome P450 2A6; at Melanocortin receptor 4; in data set [1]; in data set [2]; in data set [3]) was “Not Active” in each case.
Consider `CCCNCC(O)COc1ccccc1C(=O)CCc1ccccc1` (centres undefined) [PROPAFENONE], for which the IC50 result on D(1A) dopamine receptor is “Not Active”; against Cytochrome P450 2A6 it was “Not Active”; at Melanocortin receptor 4 it was “Not Active”; in data set [1], “Not Active”; in data set [2], “Not Active”; in data set [3] (read-out: IC50), 1740 nM. In addition, the Ki result is “Not Active” on Cytochrome P450 2A6, “Not Active” in data set [2] and 1700 nM in data set [3] (read-out: Ki).
`COC(=O)Nc1nc2ccc([S+]([O-])c3ccccc3)cc2[nH]1` (centres undefined) [OXFENDAZOLE]: the IC50 result (at D(1A) dopamine receptor; against Cytochrome P450 2A6; against Melanocortin receptor 4; in data set [1]; in data set [2]; in data set [3]) was “Not Active” throughout. The inhibition constant (Ki) entry (on Cytochrome P450 2A6; in data set [2]; in data set [3]) was “Not Active” throughout.
Take `CCC1(C)CC(=O)NC1=O` (centres undefined) [ETHOSUXIMIDE]: the half-maximal inhibitory concentration (IC50) result (at D(1A) dopamine receptor; at Cytochrome P450 2A6; at Melanocortin receptor 4; in data set [1]; in data set [2]; in data set [3]) was “Not Active” throughout. Also, the Ki entry (on Cytochrome P450 2A6; in data set [2]; in data set [3]) was “Not Active” throughout.
For `Brc1c(NC2=NCCN2)ccc2nccnc12` [BRIMONIDINE], the IC50 entry (at D(1A) dopamine receptor; against Cytochrome P450 2A6; against Melanocortin receptor 4; in data set [1]; in data set [2]; in data set [3]) was “Not Active” in each case. Further, the Ki entry (at Cytochrome P450 2A6; in data set [2]; in data set [3]) was “Not Active” each time.
For the compound `CC[C@H]1CN2CCc3cc(OC)c(OC)cc3[C@@H]2C[C@@H]1C[C@H]1NCCc2cc(OC)c(OC)cc21` [EMETINE], the IC50 result (at D(1A) dopamine receptor; at Cytochrome P450 2A6; on Melanocortin receptor 4; in data set [1]; in data set [2]; in data set [3]) was “Not Active” throughout. Besides, the Ki result (at Cytochrome P450 2A6; in data set [2]; in data set [3]) was “Not Active” in each case.
As to `COC(=O)CCc1ccc(OCC(O)CNC(C)C)cc1` (centres undefined) [ESMOLOL], the IC50 result (on D(1A) dopamine receptor; at Cytochrome P450 2A6; on Melanocortin receptor 4; in data set [1]; in data set [2]; in data set [3]) was “Not Active” each time. Also, the Ki entry (on Cytochrome P450 2A6; in data set [2]; in data set [3]) was “Not Active” each time.
Consider `COc1ccc(C(=O)N2CCCC2=O)cc1`, for which the IC50 entry (at D(1A) dopamine receptor; against Cytochrome P450 2A6; against Melanocortin receptor 4; in data set [1]; in data set [2]; in data set [3]) was “Not Active” in each case. For the same compound, the inhibition constant (Ki) result (on Cytochrome P450 2A6; in data set [2]; in data set [3]) was “Not Active” each time.
With `O=C(O)CCNC(=O)c1ccccc1` [BETAMIPRON], the IC50 result (at D(1A) dopamine receptor; against Cytochrome P450 2A6; on Melanocortin receptor 4; in data set [1]; in data set [2]; in data set [3]) was “Not Active” in each case. For the same compound, the inhibition constant Ki entry (at Cytochrome P450 2A6; in data set [2]; in data set [3]) was “Not Active” each time.
With `O=c1cnn([C@@H]2O[C@H](CO)[C@@H](O)[C@H]2O)c(=O)[nH]1` [6-AZAURIDINE], the IC50 entry (at D(1A) dopamine receptor; against Cytochrome P450 2A6; at Melanocortin receptor 4; in data set [1]; in data set [2]; in data set [3]) was “Not Active” throughout. For the same compound, the Ki result (on Cytochrome P450 2A6; in data set [2]; in data set [3]) was “Not Active” throughout.
In the case of `Cc1c(OCC(F)(F)F)ccnc1C[S+]([O-])c1nc2ccccc2[nH]1` (centres undefined) [LANSOPRAZOLE], the half-inhibitory concentration (IC50) entry (at D(1A) dopamine receptor; against Cytochrome P450 2A6; at Melanocortin receptor 4; in data set [1]; in data set [2]; in data set [3]) was “Not Active” each time. The inhibitory constant (Ki) entry (at Cytochrome P450 2A6; in data set [2]; in data set [3]) was “Not Active” in each case.
Turning to `C[C@@H]1C[C@H]2[C@@H]3CCC4=CC(=O)C=C[C@]4(C)[C@@]3(F)[C@@H](O)C[C@]2(C)[C@H]1C(=O)CO` [DESOXIMETASONE], the IC50 result (at D(1A) dopamine receptor; on Cytochrome P450 2A6; against Melanocortin receptor 4; in data set [1]; in data set [2]; in data set [3]) was “Not Active” in each case. Moreover, the inhibition constant (Ki) result (at Cytochrome P450 2A6; in data set [2]; in data set [3]) was “Not Active” throughout.
As to `O=C(c1ccccc1C(F)(F)F)N1CCC(Cc2ccccc2)CC1`, the half-maximal inhibitory concentration (IC50) entry (on D(1A) dopamine receptor; against Cytochrome P450 2A6; against Melanocortin receptor 4; in data set [1]; in data set [2]; in data set [3]) was “Not Active” in each case. The Ki entry (at Cytochrome P450 2A6; in data set [2]; in data set [3]) was “Not Active” each time.
Turning to `O=c1cc(N2CCOCC2)oc2c(-c3ccccc3)cccc12` [LY-294002], the 50% inhibitory concentration (IC50) entry (at D(1A) dopamine receptor; at Cytochrome P450 2A6; at Melanocortin receptor 4; in data set [1]; in data set [2]; in data set [3]) was “Not Active” in each case. Besides, the inhibition constant Ki entry (at Cytochrome P450 2A6; in data set [2]; in data set [3]) was “Not Active” each time.
On to `COc1cc(N)c(Cl)cc1C(=O)NC1CCN(CCCOc2ccc(F)cc2)CC1OC` (centres undefined) [CISAPRIDE], for which the half-inhibitory concentration (IC50) result on D(1A) dopamine receptor was “Not Active”; against Cytochrome P450 2A6, “Not Active”; against Melanocortin receptor 4 it was “Not Active”; in data set [1], “Not Active”; in data set [2], “Not Active”; in data set [3] (read-out: IC50) it was 530 nM. Moreover, the figures for the inhibition constant Ki result (on Cytochrome P450 2A6; in data set [2]; in data set [3] (read-out: Ki)) were “Not Active”, “Not Active” and 515 nM, respectively.
Regarding `N=C(N)NC(=O)Cc1c(Cl)cccc1Cl` [GUANFACINE], the concentration for half-maximal inhibition (IC50) entry (on D(1A) dopamine receptor; against Cytochrome P450 2A6; against Melanocortin receptor 4; in data set [1]; in data set [2]; in data set [3]) was “Not Active” in each case. For the same compound, the inhibitory constant (Ki) result (on Cytochrome P450 2A6; in data set [2]; in data set [3]) was “Not Active” in each case.
In the case of `NC(=O)C[S+]([O-])C(c1ccccc1)c1ccccc1` (centres undefined) [MODAFINIL], the IC50 result (on D(1A) dopamine receptor; at Cytochrome P450 2A6; against Melanocortin receptor 4; in data set [1]; in data set [2]; in data set [3]) was “Not Active” in each case. In addition, the Ki result (at Cytochrome P450 2A6; in data set [2]; in data set [3]) was “Not Active” throughout.
